# Assay results reported in patent US5753648A, “Tricyclic benzazepine vasopressin antagonists” (American Cyanamid Company, priority 1996, dated 1998).
# Structures can show the parent of a compound that is named as a salt.
# Tests used:
# [1] = target: T1, Rat Kidney Medullary V2 Receptors (Rattus norvegicus, UniProt Q00788); experiment: biochemical; type: binding
# T1 construct: Medullary tissues from rat kidneys are dissected out; from tissue; host or cells: rat kidney medulla membranes
# Experimental: Binding Assay to Rat Kidney Medullary V2 Receptors
# Medullary tissues from rat kidneys are dissected out, cut into small pieces and soaked in a […] sodium chloride solution containing 1.0 mM EDTA with many changes of the liquid phase, until the solution is clear of blood. The tissue is homogenized in a 0.25M sucrose solution containing 1.0 mM EDTA and 0.1 mM PMSF using a Potter-Elvehjem homogenizer with a teflon pestle. The homogenate is filtered through several layers (4 layers) of cheese cloth. The filtrate is rehomogenized using a dounce homogenizer, with a tight fitting pestle. The final homogenate is centrifuged at 1500×g for 15 min. The nuclear pellet is discarded and the supernatant fluid recentrifuged at 40,000×g for 30 min. The resulting pellet formed contains a dark inner part with the exterior, slightly pink. The pink outer part is suspended in a small amount of 50.0 mM Tris.HCl buffer, pH 7.4. The protein content is determined by the Lowry's method (Lowry et al, J. Biol. Chem., 1953). The membrane suspension is stored at -70° C., in 50.0 mM Tris.HCl, containing 0.2% inactivated BSA and 0.1 mM PMSF in aliquots of 1.0 ml containing 10.0 mg protein per ml of suspension until use in subsequent binding experiments.
# For binding experiments, the following is added in μl volume to wells of a 96 well format of a microtiter plate: 100.0 μl of 100.0 mM Tris.HCl buffer containing 0.2% heat inactivated BSA, 10.0 mM MgCl2 and a mixture of protease inhibitors: leupeptin, 1.0 mg %; aprotinin, 1.0 mg %; 1,10-phenanthroline, 2.0 mg %; trypsin inhibitor, 10.0 mg % and 0.1 mM PMSF, 20.0 μl of [^3 H] Arginine^8, vasopressin (S.A. 75.0 Ci/mmole) at 0.8 nM and the reaction initiated by the addition of 80.0 μl of tissue membranes (200.0 μg tissue protein). The plates are left undisturbed on the bench top for 120 min. to reach equilibrium. Non-specific binding is assessed in the presence of 1.0 μM of unlabeled ligand, added in 20 μl volume. For test compounds, these are solubilized in 50% dimethylsulfoxide (DMSO) and added in 20.0 μl volume to a final incubation volume of 200 μl. Upon completion of binding, the content of each well is filtered off, using a Brandel® cell Harvester (Gaithersburg, Md.). The radioactivity trapped on the filter disk by the ligand-receptor complex is assessed by liquid scintillation counting in a Packard LS Counter, with an efficiency of 65% for tritium. The data are analyzed for IC50 values by the LUNDON-2 program for competition (LUNDON SOFTWARE, Ohio).
# oxytocin receptors = target: T2, oxytocin receptors (Rattus norvegicus, UniProt P70536); experiment: Oxytocin Receptor Binding; settings: for IC50: rat uterine membranes, [3H]oxytocin
# T2 sequence (P70536 1-388): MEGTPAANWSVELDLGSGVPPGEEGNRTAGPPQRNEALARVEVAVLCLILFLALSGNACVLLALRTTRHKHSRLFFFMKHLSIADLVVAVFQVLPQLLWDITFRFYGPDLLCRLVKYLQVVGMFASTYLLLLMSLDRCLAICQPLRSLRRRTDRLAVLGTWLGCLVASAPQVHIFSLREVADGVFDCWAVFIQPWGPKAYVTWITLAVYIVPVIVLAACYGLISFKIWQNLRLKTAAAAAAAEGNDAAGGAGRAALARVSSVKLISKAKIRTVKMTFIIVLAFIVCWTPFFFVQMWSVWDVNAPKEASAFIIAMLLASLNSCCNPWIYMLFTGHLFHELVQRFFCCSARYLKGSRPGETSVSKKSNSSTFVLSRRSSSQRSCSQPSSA
# Experimental: Female Sprague-Dawley rats weighing approximately 200-250 g are injected intramuscularly (i.m.) with 0.3 mg/kg of body weight of diethylstilbestrol (DES). The rats are sacrificed 18 hours later under pentobarbital anesthesia. The uteri are dissected out, cleaned of fat and connective tissues and rinsed in 50 ml of normal saline. The tissue pooled from six rats is homogenized in 50 ml of 0.01 mM Tris.HCl, containing 0.5 mM dithiothreitol and 1.0 mM EDTA, adjusted to pH 7.4, using a polytron at setting 6 with three passes of 10 sec each. The homogenate is passed through two (2) layers of cheesecloth and the filtrate centrifuged at 1000×g for 10 min. The clear supernatant is removed and recentrifuged at 165,000×g for 30 min. The resulting pellet containing the oxytocin receptors is resuspended in 50.0 mM Tris.HCl containing 5.0 mM MgCl2 at pH 7.4, to give a protein concentration of 2.5 mg/ml of tissue suspension. This preparation is used in subsequent binding assays with [^3 H]Oxytocin.
# Binding of 3,5-[^3 H]Oxytocin ([^3 H]OT) to its receptors is done in microtiter plates using [^3 H]OT, at various concentrations, in an assay buffer of 50.0 mM Tris.HCl, pH 7.4 and containing 5.0 mM MgCl2, and a mixture of protease inhibitors: BSA, 0.1 mg; aprotinin, 1.0 mg; 1,10-phenanthroline, 2.0 mg; trypsin, 10.0 mg; and PMSF, 0.3 mg per 100 ml of buffer solution. Non-specific binding is determined in the presence of 1.0 uM unlabeled OT. The binding reaction is terminated after 60 min., at 220° C., by rapid filtration through glass fiber filters using a Brandel® cell harvester (Bio-medical Research and Development Laboratories, Inc., Gaithersburg, Md.). Competition experiments are conducted at equilibrium using 1.0 nM [^3 H]OT and varying the concentration of the displacing agents. The concentrations of agent displacing 50% of [^3 H]OT at its sites (IC50) are calculated by a computer assisted LUNDON-2 program (LUNDON SOFTWARE INC., Ohio, USA).
# Rat Hepatic V1 Receptors = Rat Hepatic V1 Receptors (Rattus norvegicus, UniProt P30560); experiment: Binding Assay to Rat Hepatic V1 Receptors
# Experimental: Binding Assay to Rat Hepatic V1 Receptors
# Rat liver plasma membranes expressing the vasopressin V1 receptor subtypes are isolated by sucrose density gradient according to the method described by Lesko et al, (1973). These membranes are quickly suspended in 50.0 mM Tris.HCl buffer, pH 7.4, containing 0.2% bovine serum albumin (BSA) and 0.1 mM phenylmethylsulfonylfluoride (PMSF) and kept frozen at -70° C. until used in subsequent binding experiments. For binding experiments, the following is added to the wells of a ninety-six well format microtiter plate: 100 μl of 100.0 mM Tris.HCl buffer containing 10.0 mM MgCl2, 0.2% heat inactivated BSA and a mixture of protease inhibitors: leupeptin, 1.0 mg %; aprotinin, 1.0 mg %; 1,10-phenanthroline,2.0 mg %; trypsin inhibitor, 10.0 mg % and 0.1 mM PMSF, 20.0 μl of [phenylalanyl-3,4,5,-^3 H] vaso-pressin (S.A. 45.1 Ci/mmole) at 0.8 nM, and the reaction initiated by the addition of 80 μl of tissue membranes containing 20 μg of tissue protein. The plates are kept undisturbed on the bench top at room temperature for 120 min. to reach equilibrium. Non-specific samples are assayed in the presence of 0.1 μm of the unlabeled antagonist phenylalanylvasopressin, added in 20.0 μl volume. For test compounds, these are solubilized in 50% dimethylsulfoxide (DMSO) and added in 20.0 μl volume to a final incubation volume of 200 μl. Upon completion of binding, the content of each well is filtered off, using a Brandel® cell Harvester (Gaithersburg, Md.). The radioactivity trapped on the filter disk by the ligand-receptor complex is assessed by liquid scintillation counting in a Packard LS Counter, with an efficiency of 65% for tritium. The data are analyzed for IC50 values by the LUNDON-2 program for competition (LUNDON SOFTWARE, Ohio).
# Sequence of Rat Hepatic V1 Receptors (P30560 whole entry): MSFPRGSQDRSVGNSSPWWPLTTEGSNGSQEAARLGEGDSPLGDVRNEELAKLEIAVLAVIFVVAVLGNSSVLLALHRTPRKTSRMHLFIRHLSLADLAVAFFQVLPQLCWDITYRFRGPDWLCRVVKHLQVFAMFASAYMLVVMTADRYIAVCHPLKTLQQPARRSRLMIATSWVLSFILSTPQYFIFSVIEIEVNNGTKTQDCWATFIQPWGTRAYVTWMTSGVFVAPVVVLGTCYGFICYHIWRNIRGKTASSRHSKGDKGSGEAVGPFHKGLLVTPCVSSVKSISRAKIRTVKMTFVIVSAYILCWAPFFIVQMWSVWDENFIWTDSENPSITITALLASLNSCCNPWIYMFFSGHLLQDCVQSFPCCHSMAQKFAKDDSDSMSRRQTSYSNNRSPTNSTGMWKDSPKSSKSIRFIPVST
# T1 sequence (Q00788 whole entry): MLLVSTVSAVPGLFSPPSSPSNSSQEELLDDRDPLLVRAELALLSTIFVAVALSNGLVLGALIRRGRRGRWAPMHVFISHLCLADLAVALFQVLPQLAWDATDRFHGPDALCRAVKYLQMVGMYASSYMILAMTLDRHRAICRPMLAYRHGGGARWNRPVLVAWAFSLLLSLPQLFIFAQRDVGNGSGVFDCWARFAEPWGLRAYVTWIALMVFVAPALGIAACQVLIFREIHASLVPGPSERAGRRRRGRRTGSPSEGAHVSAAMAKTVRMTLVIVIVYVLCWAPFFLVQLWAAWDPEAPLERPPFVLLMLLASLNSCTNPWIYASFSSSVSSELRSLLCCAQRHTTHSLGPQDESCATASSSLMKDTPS
IC50 [1] [nM],inhibition at 1 µM (oxytocin receptors) [%],IC50 (oxytocin receptors) [nM],IC50 (Rat Hepatic V1 Receptors) [nM],inhibition at 10 µM (oxytocin receptors) [%],inhibition at 2.5 µM (oxytocin receptors; dose 2.5 μM) [%],SMILES
1.8,90,140,11,–,–,O=C(Nc1ccc(C(=O)N2Cc3cccn3Cc3ccccc32)cn1)c1ccccc1Cl [Example 6]
1.6,89,150,7,–,–,O=C(Nc1ccc(C(=O)N2Cc3cccn3Cc3ccccc32)cn1)c1ccccc1Br [Example 8]
24,–,800,210,98,–,Cc1ccccc1C(=O)Nc1ncc(C(=O)N2Cc3cccn3Cc3ccccc32)cc1Br [Example 12]
30,–,510,450,95,–,O=C(Nc1ccc(C(=O)N2Cc3cccn3Cc3ccccc32)cn1)c1ccc([N+](=O)[O-])cc1Cl [Example 33]
11,–,730,87,95,–,"Cc1ccc(F)cc1C(=O)Nc1ccc(C(=O)N2Cc3ccnn3Cc3ccccc32)cn1 [Example 208, N-[5-(4H-Pyrazolo[5,1-c][1,4]benzodiazepin-5(10H)-ylcarbonyl)-2-pyridinyl]-5-fluoro-2-methylbenzamide]"
1,–,–,19,–,–,O=C(Nc1ccc(C(=O)N2Cc3ccnn3Cc3ccccc32)cn1)c1ccccc1-c1ccccc1 [Example 245]
360,–,380,200,98,–,O=C(c1ccc(NCC2CCCCC2)nc1)N1Cc2cccn2Cc2ccccc21 [Example 263]
82,–,56,190,–,95,"O=C(c1ccc(NCc2ccccc2)nc1)N1Cc2cccn2Cc2ccccc21 [Example 273, 10[[6-[(Phenylmethyl)amino]-3-pyridinyl]carbonyl]-10,11-dihydro-5H-pyrrolo[2,1-c][1,4]benzodiazepine]"
1.5,–,–,16,–,–,"O=C(Nc1ccc(C(=O)N2Cc3cccn3Cc3ccccc32)c(Cl)c1)c1ccccc1-c1ccccc1 [Example 319, N-[4-(5H-Pyrrolo[2,1-c][1,4]benzodiazepin-10(11H)-ylcarbonyl)-3-chlorophenyl][1,1'-biphenyl]-2-carboxamide]"
2.6,–,–,3.4,–,–,"O=C(Nc1ccc(C(=O)N2Cc3cccn3Cc3ccccc32)cc1)c1ccccc1-c1ccccc1 [Example 320, N-[4-(5H-Pyrrolo[2,1-c][1,4]benzodiazepin-10(11H)-ylcarbonyl)phenyl][1,1'-biphenyl]-2-carboxamide]"
5.1,–,–,18,–,–,"O=C(Nc1ccc(C(=O)N2Cc3cccn3Cc3ccccc32)cc1)c1ccccc1Cc1ccccc1 [Example 321, N-[4-(5H-Pyrrolo[2,1-c][1,4]benzodiazepine-10(11H)-ylcarbonyl)phenyl]-2-(phenylmethyl)benzamide]"
11,–,–,670,–,–,"O=C(Nc1ccc(C(=O)N2Cc3cccn3Cc3ccccc32)c(Cl)c1)c1ccccc1Cc1ccccc1 [Example 322, N-[4-(5H-Pyrrolo[2,1-c][1,4]benzodiazenin-10(11H)-ylcarbonyl)-3-chlorophenyl]-2-(phenylmethyl)benzamide]"
120,45,–,420,–,–,O=C(Nc1ccc(C(=O)N2Cc3cccn3Cc3ccccc32)cc1)c1ccccc1-c1ccc(C(F)(F)F)cc1 [Example 324]
28,56,–,350,–,–,"Cc1ncccc1C(=O)Nc1ccc(C(=O)N2Cc3cccn3Cc3ccccc32)cc1 [Example 327, N-[4-(5H-Pyrrolo[2,1-c][1,4]benzodiazepin-10(11H)-ylcarbonyl)phenyl]-2-methylpyridine-3-carboxamide]"
19,–,570,3300,85,–,"Cc1ncccc1C(=O)Nc1ccc(C(=O)N2Cc3cccn3Cc3ccccc32)c(Cl)c1 [Example 328, N-[4-(5H-Pyrrolo[2,1-c][1,4]benzodiazepin-10(11H)-yl-carbonyl)-3-chlorophenyl]-2-methyl-pyridine-3-carboxamide]"
70,–,190,310,91,–,"Cc1ncccc1C(=O)Nc1ccc(C(=O)N2Cc3cccn3Cc3ccccc32)cn1 [Example 329, N-[5-(5H-Pyrrolo[2,1-c][1,4]benzodiazepin-10(11H)-ylcarbonyl]-2-pyridinyl]-2-methylpyridine-3-carboxamide]"
410,–,880,250,98,–,"O=C(Nc1ccc(C(=O)N2Cc3cccn3Cc3ccccc32)cc1)c1cccnc1Cl [Example 333, N-[4-(5H-Pyrrolo[2,1-c][1,4]benzodiazepin-10(11H)-ylcarbonyl)phenyl]-2-chloropyridine-3-carboxamide]"
650,16,–,1300,–,–,"CN1CCN(c2ncccc2C(=O)Nc2ccc(C(=O)N3Cc4cccn4Cc4ccccc43)cc2)CC1 [Example 337, N-[4-(5H-pyrrolo[2,1-c][1,4]benzodiazepin-10(11H)-ylcarbonyl)phenyl]-2-(4-methyl-1-piperazinyl)-pyridine-3-carboxamide]"
4,74,–,20,–,–,"O=C(Nc1ccc(C(=O)N2Cc3cccn3Cc3ccccc32)cc1)c1ccccc1-c1ccccn1 [Example 341, N-[4-(5H-Pyrrolo[2,1-c][1,4]benzodiazepin-10(11H)-ylcarbonyl)phenyl]-2-(2-pyridinyl)benzamide]"

SMILES,IC50 [1] [nM],inhibition at 1 µM (oxytocin receptors) [%],IC50 (oxytocin receptors) [nM],IC50 (Rat Hepatic V1 Receptors) [nM],inhibition at 10 µM (oxytocin receptors) [%],inhibition at 2.5 µM (oxytocin receptors; dose 2.5 μM) [%]
"CN(C)c1ncccc1C(=O)Nc1ccc(C(=O)N2Cc3cccn3Cc3ccccc32)cc1 [Example 332, N-[4-(5H-Pyrrolo[2,1-c][1,4]benzodiazepin-10(11H)-ylcarbonyl)phenyl]-2-(dimethylamino)-pyridine-3-carboxamide Hydrochloride]",3.4,–,830,31,–,–
"CN(C)c1ncccc1C(=O)Nc1ccc(C(=O)N2Cc3cccn3Cc3ccccc32)cc1 [Example 338, N-[4-(5H-Pyrrolo[2,1-c][1,4]benzodiazepin-10(11H)-ylcarbonyl)phenyl]-2-(dimethylamino)-pyridine-3-carboxamide]",4.8,–,720,37,98,–
